Test results: patent US7728028B2, “Substituted imidazoline compounds” (Gruenenthal GmbH, priority 2005, dated 2010)

Target: T1, human μ-opiate receptor (Homo sapiens, UniProt P35372)
T1 construct: purchased PerkinElmer Life Sciences, Zaventem, Belgium RB-HOM; host or cells: CHO-K1 cells (recombinant expression; membrane preparation)
Experiment: Affinity for the human μ-opiate receptor ([3H]-naloxone displacement, SPA)
Conditions: Table 2, Examples 11-161; test substance 1 μmole/l; inhibition of specific [3H]-naloxone binding; CHO-K1 membranes; read-out: μ-Opioid receptor, % inhibition [1 μM]
How it was run: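 CHO-K1 membranes expressing the receptor, incubated 90 min at room temperature with 1 nmol/l [3H]-naloxone and WGA-SPA beads in 50 mmol/l Tris-HCl with 0.06% BSA. Non-specific binding defined with 100 μmol/l naloxone. Value is % inhibition of specific binding at 1 μmol/l test substance.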

T1 sequence (P35372 whole entry): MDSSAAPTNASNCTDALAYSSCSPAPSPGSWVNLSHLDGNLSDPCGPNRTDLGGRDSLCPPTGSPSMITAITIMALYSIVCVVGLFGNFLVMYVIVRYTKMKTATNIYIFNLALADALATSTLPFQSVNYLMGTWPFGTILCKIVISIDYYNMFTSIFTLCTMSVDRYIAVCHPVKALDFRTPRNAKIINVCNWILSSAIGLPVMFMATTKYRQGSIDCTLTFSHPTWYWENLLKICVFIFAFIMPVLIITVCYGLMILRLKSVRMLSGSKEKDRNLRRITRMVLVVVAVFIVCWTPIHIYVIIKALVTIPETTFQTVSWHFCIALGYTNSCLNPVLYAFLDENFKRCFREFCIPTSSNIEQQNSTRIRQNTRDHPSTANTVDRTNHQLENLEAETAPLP

SMILES | inhibition at 1 µM
COC(=O)C1(CSC)N=CN(C2CCCCC2)C1CC1CCC(C(CCc2ccccc2)N(C)C)CC1 (centres unmarked) [Example 155, 1-cyclohexyl-5-[4-(1-dimethylamino-3-phenylpropyl)-cyclohexylmethyl]-4-methylsulfanylmethyl-4,5-dihydro-1H-imidazole-4-carboxylic acid methyl ester] | 86%
COC(=O)C1(CSC)N=CN(C2CCCCC2)C1CC1CCC(C(c2cccc(F)c2)N(C)C)CC1 (centres unmarked) [Example 149, 1-cyclohexyl-5-{4-[dimethylamino-(3-fluorophenyl)-methyl]-cyclohexylmethyl}-4-methylsulfanylmethyl-4,5-dihydro-1H-imidazole-4-carboxylic acid methyl ester] | 99%
COC(=O)C1(C)N=CN(CCc2ccccc2)C1CC1CCC(C(c2cccc(F)c2)N(C)C)CC1 (centres unmarked) [Example 131, 5-{4-[dimethylamino-(3-fluorophenyl)-methyl]-cyclohexylmethyl}-4-methyl-1-phenethyl-4,5-dihydro-1H-imidazole-4-carboxylic acid methyl ester] | 100%
CCCCN1C=NC(CCSC)(C(=O)OC)C1CC1CCC(C(CCc2ccccc2)N(C)C)CC1 (centres unmarked) [Example 128, 1-butyl-5-[4-(1-dimethylamino-3-phenylpropyl)-cyclohexylmethyl]-4-(2-methylsulfanylethyl)-4,5-dihydro-1H-imidazole-4-carboxylic acid methyl ester] | 83%
COC(=O)C1(Cc2ccc(Cl)cc2)N=CN(CCc2ccccc2)C1CC1CCC(C(c2ccc(Cl)cc2)N(C)C)CC1 (centres unmarked) [Example 44, 4-(4-chlorobenzyl)-5-{4-[(4-chlorophenyl)-dimethylaminomethyl]-cyclohexylmethyl}-1-phenethyl-4,5-dihydro-1H-imidazole-4-carboxylic acid methyl ester] | 91%
CCCN1C=NC(CSCc2ccccc2)(C(=O)OC)C1CC1CCC(C(c2ccc(F)cc2)N(C)C)CC1 (centres unmarked) [Example 161, 4-benzylsulfanylmethyl-5-{4-[dimethylamino-(4-fluorophenyl)-methyl]-cyclohexylmethyl}-1-propyl-4,5-dihydro-1H-imidazole-4-carboxylic acid methyl ester] | 91%
CCCN1C=NC(CCC(=O)OC)(C(=O)OC)C1CC1CCC(C(CCc2ccccc2)N(C)C)CC1 (centres unmarked) [Example 71, 5-[4-(1-dimethylamino-3-phenylpropyl)-cyclohexylmethyl]-4-(2-methoxycarbonylethyl)-1-propyl-4,5-dihydro-1H-imidazole-4-carboxylic acid methyl ester] | 78%
CCCCN1C=NC(CSCc2ccccc2)(C(=O)OC)C1C1CCC(C(c2ccc(Cl)cc2)N(C)C)CC1 (centres unmarked) [Example 69, 4-benzylsulfanylmethyl-1-butyl-5-{4-[(4-chlorophenyl)-dimethylaminomethyl]-cyclohexyl}-4,5-dihydro-1H-imidazole-4-carboxylic acid methyl ester] | 95%
COC(=O)C1(CC(C)C)N=CN(C2CCCCC2)C1C1CCC(C(c2ccc(Cl)cc2)N(C)C)CC1 (centres unmarked) [Example 14, 5-{4-[(4-chlorophenyl)-dimethylaminomethyl]-cyclohexyl}-1-cyclohexyl-4-isobutyl-4,5-dihydro-1H-imidazole-4-carboxylic acid methyl ester] | 92%
CCCCN1C=NC(CSCc2ccccc2)(C(=O)OC)C1CC1CCC(C(CCc2ccccc2)N(C)C)CC1 (centres unmarked) [Example 79, 4-benzylsulfanylmethyl-1-butyl-5-[4-(1-dimethylamino-3-phenylpropyl)-cyclohexylmethyl]-4,5-dihydro-1H-imidazole-4-carboxylic acid methyl ester] | 79%
COC(=O)C1(CSCc2ccccc2)N=CN(CCc2ccccc2)C1CC1CCC(C(c2cccc(F)c2)N(C)C)CC1 (centres unmarked) [Example 82, 4-benzylsulfanylmethyl-5-{4-[dimethylamino-(3-fluorophenyl)-methyl]-cyclohexylmethyl}-1-phenethyl-4,5-dihydro-1H-imidazole-4-carboxylic acid methyl ester] | 95%
CCCN1C=NC(CCC(=O)OC)(C(=O)OC)C1CC1CCC(C(c2ccc(Cl)cc2)N(C)C)CC1 (centres unmarked) [Example 61, 5-{4-[(4-chlorophenyl)-dimethylaminomethyl]-cyclohexylmethyl}-4-(2-methoxycarbonylethyl)-1-propyl-4,5-dihydro-1H-imidazole-4-carboxylic acid methyl ester] | 93%
CCCCN1C=NC(CCC(=O)OC)(C(=O)OC)C1C1CCC(C(c2ccc(Cl)cc2)N(C)C)CC1 (centres unmarked) [Example 68, 1-butyl-5-{4-[(4-chlorophenyl)-dimethylaminomethyl]-cyclohexyl}-4-(2-methoxycarbonylethyl)-4,5-dihydro-1H-imidazole-4-carboxylic acid methyl ester] | 90%
CCCN1C=NC(CC(C)C)(C(=O)OC)C1CC1CCC(C(c2ccc(Cl)cc2)N(C)C)CC1 (centres unmarked) [Example 26, 5-{4-[(4-chlorophenyl)-dimethylaminomethyl]-cyclohexylmethyl}-4-isobutyl-1-propyl-4,5-dihydro-1H-imidazole-4-carboxylic acid methyl ester] | 96%
COC(=O)C1(CCSC)N=CN(CCc2ccccc2)C1CC1CCC(C(c2cccc(F)c2)N(C)C)CC1 (centres unmarked) [Example 130, 5-{4-[dimethylamino-(3-fluorophenyl)-methyl]-cyclohexylmethyl}-4-(2-methylsulfanylethyl)-1-phenethyl-4,5-dihydro-1H-imidazole-4-carboxylic acid methyl ester] | 97%
COC(=O)C1(C)N=CN(C2CCCCC2)C1CC1CCC(C(c2ccc(F)cc2)N(C)C)CC1 (centres unmarked) [Example 107, 1-cyclohexyl-5-{4-[dimethylamino-(4-fluorophenyl)-methyl]-cyclohexylmethyl}-4-methyl-4,5-dihydro-1H-imidazole-4-carboxylic acid methyl ester] | 87%
CCCCN1C=NC(CC(C)C)(C(=O)OC)C1C1CCC(C(c2ccc(Cl)cc2)N(C)C)CC1 (centres unmarked) [Example 31, 1-butyl-5-{4-[(4-chlorophenyl)-dimethylaminomethyl]-cyclohexyl}-4-isobutyl-4,5-dihydro-1H-imidazole-4-carboxylic acid methyl ester] | 91%
CCC(C)C1(C(=O)OC)N=CN(C2CCCCC2)C1CC1CCC(C(c2ccc(Cl)cc2)N(C)C)CC1 (centres unmarked) [Example 54, Methyl-4-sec-butyl-5-((4-((4-chlorophenyl)(dimethylamino)methyl)cyclohexyl)methyl)-1-cyclohexyl-4,5-dihydro-1H-imidazole-4-carboxylate] | 100%
COC(=O)C1(CCSC)N=CN(CCc2ccccc2)C1CC1CCC(C(c2ccc(F)cc2)N(C)C)CC1 (centres unmarked) [Example 133, 5-{4-[dimethylamino-(4-fluorophenyl)-methyl]-cyclohexylmethyl}-4-(2-methylsulfanylethyl)-1-phenethyl-4,5-dihydro-1H-imidazole-4-carboxylic acid methyl ester] | 84%
CCCCN1C=NC(CSC)(C(=O)OC)C1CC1CCC(C(c2cccc(F)c2)N(C)C)CC1 (centres unmarked) [Example 74, 1-butyl-5-{4-[dimethylamino-(3-fluorophenyl)-methyl]-cyclohexylmethyl}-4-methylsulfanylmethyl-4,5-dihydro-1H-imidazole-4-carboxylic acid methyl ester] | 95%
